# Patent US7649012B2, “Compounds, pharmaceutical compositions containing same, and methods of use for same” (FASgen, Inc., priority 2002, dated 2010)
# Read-outs that look alike come from different tables or passages of the source.
# Legend:
# [1] = system: Escherichia coli (ATCC # 25922); assay: Broth microdilution MIC; format: cell-based; conditions: for MIC: Escherichia coli, ATCC25922
# Description: (§1) A broth microdilution assay is used to assess the antimicrobial activity of the compounds. […] Microorganisms tested include Staphylococcus aureus (ATCC # 29213), Enterococcus faecalis (ATCC # 29212), Pseudomonas aeruginosa (ATCC # 27853), and Escherichia coli (ATCC # 25922). The assay is performed in two growth media, Mueller Hinton Broth and Trypticase Soy Broth. […] Colonies are suspended in sterile broth so that the turbidity matches the turbidity of a 0.5 McFarland standard. The inoculum is diluted 1:10 in sterile broth (Mueller Hinton or Trypticase soy) and 195 ul is dispensed per well of a 96-well plate. The compounds to be tested, dissolved in DMSO, are added to the wells in 5 ul volume at the following concentrations: 25, 12.5, 6.25, 3.125, 1.56 and 0.78 ug/ml in duplicate. Additional concentrations are tested if required. 5 ul of DMSO added to duplicate wells are the vehicle control. Serial dilutions of positive control compounds, vancomycin (E. faecalis and S. aureus) and tobramycin (E. coli and P. aeruginosa), are included in each run. After 24 hours of incubation at 37° C., plates are read at OD600 on a Molecular Devices SpectraMax Plus Spectrophotometer. Average OD600 values are computed using SOFTmax Pro Software (Molecular Devices) and MIC values are determined by linear regression analysis using Prism version 3.02 (Graph Pad Software, San Diego).
# [2] = system: Staphylococcus aureus (ATCC # 29213); assay: Broth microdilution MIC; format: cell-based; conditions: for MIC: Staphylococcus aureus, ATCC29213
# Description: as §1
# [3] = system: MCF-7 human breast cancer cells; assay: XTT cytotoxicity assay; format: cell-based; conditions: MCF7, MCF-7, 72 hours, some cells marked (M)
# Description: The XTT assay is a non-radioactive alternative for the [^51 Cr] release cytotoxicity assay. XTT is a tetrazolium salt that is reduced to a formazan dye only by metabolically active, viable cells. The reduction of XTT is measured spectrophotometrically as OD490-OD650.
# To measure the cytotoxicity of specific compounds against cancer cells, 9×10^3 MCF-7 human breast cancer cells, obtained from the American Type Culture Collection are plated per well in 96 well plates in DMEM medium with 10% fetal bovine serum, insulin, penicillin, and streptomycin. Following overnight culture at 37° C. and 5% CO2, the compounds to be tested, dissolved in DMSO, are added to the wells in 1 μl volume at the following concentrations: 80, 40, 20, 10, 5, 2.5, 1.25, and 0.625 μg/ml in triplicate. Additional concentrations are tested if required. 1 μl of DMSO is added to triplicate wells are the vehicle control. C75 is run at 40, 20, […], and 5 μg/ml in triplicate as positive controls. After 72 hours of incubation, cells are incubated for 4 hours with the XTT reagent as per manufacturer's instructions (Cell Proliferation Kit II (XTT) Roche). Plates are read at OD490 and OD650 on a Molecular Devices SpectraMax Plus Spectrophotometer. Three wells containing the XTT reagent without cells serve as the plate blank. XTT data are reported as OD490-OD650-Averages and standard error of the mean are computed using SOFTmax Pro software (Molecular Dynamics).
# The IC50 for the compounds is defined as the concentration of drug leading to a 50% reduction in OD490-OD650 compared to controls. The OD490-OD650 are computed by the SOFTmax PRO software (Molecular Devices) for each compound concentration. IC50 is calculated by linear regression, plotting the FAS activity as percent of control versus drug concentrations. Linear regression, best-fit line, r^2, and 95% confidence intervals are determined using Prism Version 3.0 (Graph Pad Software).
# [4] = biological target: T1, purified human FAS (Homo sapiens, UniProt P49327); assay: Measurement of FAS enzymatic activity (NADPH oxidation), IC50; format: biochemical
# T1 construct: Human FAS was purified from cultured ZR-75-1 human breast cancer cells; endogenous in cells; host or cells: ZR-75-1 human breast cancer cells (ATCC); endogenous enzyme purified by PEG precipitation and Mono Q anion exchange
# T1 sequence (P49327 whole entry): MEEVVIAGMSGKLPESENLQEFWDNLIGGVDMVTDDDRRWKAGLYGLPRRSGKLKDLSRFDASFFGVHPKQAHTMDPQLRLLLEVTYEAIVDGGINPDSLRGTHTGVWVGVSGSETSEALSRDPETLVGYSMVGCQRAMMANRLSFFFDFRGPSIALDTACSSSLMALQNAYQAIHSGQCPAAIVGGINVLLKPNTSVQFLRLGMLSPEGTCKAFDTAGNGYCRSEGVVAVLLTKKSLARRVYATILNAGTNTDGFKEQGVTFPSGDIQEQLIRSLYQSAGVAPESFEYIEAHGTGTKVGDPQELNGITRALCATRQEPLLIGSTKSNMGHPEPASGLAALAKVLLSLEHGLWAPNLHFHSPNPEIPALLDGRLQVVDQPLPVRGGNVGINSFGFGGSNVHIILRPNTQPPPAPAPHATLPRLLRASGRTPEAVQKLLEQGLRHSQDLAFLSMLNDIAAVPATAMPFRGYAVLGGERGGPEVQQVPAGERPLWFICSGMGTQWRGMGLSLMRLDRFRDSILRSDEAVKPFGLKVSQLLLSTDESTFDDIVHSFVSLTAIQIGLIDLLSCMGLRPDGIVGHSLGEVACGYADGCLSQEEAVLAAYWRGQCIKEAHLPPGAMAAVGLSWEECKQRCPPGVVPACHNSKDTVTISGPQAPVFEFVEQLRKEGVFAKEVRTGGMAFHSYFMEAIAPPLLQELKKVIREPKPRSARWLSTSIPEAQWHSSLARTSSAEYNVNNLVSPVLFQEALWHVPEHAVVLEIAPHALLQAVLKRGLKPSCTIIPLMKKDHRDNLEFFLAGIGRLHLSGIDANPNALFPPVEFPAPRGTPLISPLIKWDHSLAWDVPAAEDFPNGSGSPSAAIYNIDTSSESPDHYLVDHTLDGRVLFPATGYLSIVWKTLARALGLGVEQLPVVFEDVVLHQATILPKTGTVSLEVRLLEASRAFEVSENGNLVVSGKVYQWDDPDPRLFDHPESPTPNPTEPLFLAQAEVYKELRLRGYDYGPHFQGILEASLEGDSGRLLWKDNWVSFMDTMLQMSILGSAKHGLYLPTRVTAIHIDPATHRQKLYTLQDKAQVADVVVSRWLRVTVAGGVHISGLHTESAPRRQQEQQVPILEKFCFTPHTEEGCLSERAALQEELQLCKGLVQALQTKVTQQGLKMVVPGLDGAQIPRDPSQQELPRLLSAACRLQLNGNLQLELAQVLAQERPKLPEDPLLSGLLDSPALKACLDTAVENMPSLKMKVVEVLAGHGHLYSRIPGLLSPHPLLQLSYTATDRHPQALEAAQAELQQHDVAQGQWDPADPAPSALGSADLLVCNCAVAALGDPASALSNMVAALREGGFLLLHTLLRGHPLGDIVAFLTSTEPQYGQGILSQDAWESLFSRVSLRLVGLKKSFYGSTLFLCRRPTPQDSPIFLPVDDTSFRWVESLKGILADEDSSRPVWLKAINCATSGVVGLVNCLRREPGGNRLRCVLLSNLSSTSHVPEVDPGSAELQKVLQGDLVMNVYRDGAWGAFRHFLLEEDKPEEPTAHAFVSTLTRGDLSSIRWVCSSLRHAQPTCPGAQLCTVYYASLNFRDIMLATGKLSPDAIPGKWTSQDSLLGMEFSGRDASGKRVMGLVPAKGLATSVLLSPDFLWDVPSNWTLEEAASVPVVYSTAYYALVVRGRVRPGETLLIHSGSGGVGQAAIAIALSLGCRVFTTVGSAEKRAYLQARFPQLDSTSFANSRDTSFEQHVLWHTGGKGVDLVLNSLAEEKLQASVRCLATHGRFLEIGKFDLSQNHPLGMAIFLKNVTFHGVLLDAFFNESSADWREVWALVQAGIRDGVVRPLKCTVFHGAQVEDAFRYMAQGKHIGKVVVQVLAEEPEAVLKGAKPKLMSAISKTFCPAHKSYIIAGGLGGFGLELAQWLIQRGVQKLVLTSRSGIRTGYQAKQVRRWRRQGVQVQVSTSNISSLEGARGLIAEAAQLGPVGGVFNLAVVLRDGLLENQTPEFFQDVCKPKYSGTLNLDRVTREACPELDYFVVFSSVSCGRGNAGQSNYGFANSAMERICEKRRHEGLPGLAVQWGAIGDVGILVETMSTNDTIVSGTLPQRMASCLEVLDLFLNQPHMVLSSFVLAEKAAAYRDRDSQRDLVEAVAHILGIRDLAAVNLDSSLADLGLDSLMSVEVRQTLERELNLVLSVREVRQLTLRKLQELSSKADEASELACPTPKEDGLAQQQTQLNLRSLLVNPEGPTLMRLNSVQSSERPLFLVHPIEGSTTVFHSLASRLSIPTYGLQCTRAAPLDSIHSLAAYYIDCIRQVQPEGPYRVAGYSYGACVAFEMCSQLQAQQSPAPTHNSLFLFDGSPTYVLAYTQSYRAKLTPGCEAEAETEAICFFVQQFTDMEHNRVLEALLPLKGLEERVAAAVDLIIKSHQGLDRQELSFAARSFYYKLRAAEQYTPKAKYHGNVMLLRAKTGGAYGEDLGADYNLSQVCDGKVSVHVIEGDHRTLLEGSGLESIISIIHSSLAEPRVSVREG
# Description: Human FAS was purified from cultured ZR-75-1 human breast cancer cells obtained from the American Type Culture Collection. The procedure, adapted from Linn et al., 1981, and Kuhajda et al., 1994, utilizes hypotonic lysis, successive polyethyleneglycol (PEG) precipitations, and anion exchange chromatography. […] The lysate is centrifuged in JA-20 rotor (Beckman) at 20,000 rpm for 30 minutes at 4° C. and the supernatant is brought to 42 ml with lysis buffer. A solution of 50% PEG 8000 in lysis buffer is added slowly to the supernatant to a final concentration of 7.5%. After rocking for 60 minutes at 4° C., the solution is centrifuged in JA-20 rotor (Beckman) at 15,000 rpm for 30 minutes at 4° C. […] After the rocking and centrifugation is repeated as above, the pellet is resuspended overnight at 4° C. in 10 ml of Buffer A (20 mM K2HPO4, pH 7.4). After 0.45 μM filtration, the protein solution is applied to a Mono Q 5/5 anion exchange column (Pharmacia). The column is washed for 15 minutes with buffer A at 1 ml/minute, and bound material is eluted with a linear 60-ml gradient over 60 minutes to 1 M KCl. […] FAS protein concentration is determined using the Coomassie Plus Protein Assay Reagent (Pierce) according to manufacturer's specifications using BSA as a standard. This procedure results in substantially pure preparations of FAS (>95%) as judged by Coomassie-stained gels. FAS activity is measured by monitoring the malonyl-CoA dependent oxidation of NADPH spectrophotometrically at OD340 in 96-well plates (Dils et al and […] et al, 1975). […] For each experiment, cerulenin (Sigma) is run as a positive control along with DMSO controls, inhibitors, and blanks (no FAS enzyme) all in duplicate. The assay is performed on a Molecular Devices SpectraMax Plus Spectrophotometer. The plate containing FAS, buffers, inhibitors, and controls are placed in the spectrophotometer heated to 37° C. Using the kinetic protocol, the wells are blanked on duplicate wells containing 100 μl of 100 mM K2HPO4, pH 6.5 and the plate is read at OD340 at 10 sec intervals for 5 minutes to measure any malonyl-CoA independent oxidation of NADPH. The plate is removed from the spectrophotometer and malonyl-CoA (67.4 μM, final concentration per well) and […] (61.8 μM, final concentration per well) are added to each well except to the blanks. The plate is read again as above with the kinetic protocol to measure the malonyl-CoA dependent NADPH oxidation. The difference between the Δ OD340 for the malonyl-CoA dependent and non-malonyl-CoA dependent NADPH oxidation is the specific FAS activity. Because of the purity of the FAS preparation, non-malonyl-CoA dependent NADPH oxidation is negligible. […] Graphs of Δ OD340 versus time are plotted by the SOFTmax PRO software (Molecular Devices) for each compound concentration.
# [5] = Mueller Hinton Broth, read-out: SA/MH(MIC)
# [6] = Trypticase Soy Broth, read-out: SA/Tsoy(MIC)
# [7] = Trypticase Soy Broth, read-out: Ecoli/Tsoy(MIC)
# [8] = Mueller Hinton Broth, read-out: Ecoli/MH(MIC)
SMILES,Ecoli/MH(MIC) ([1]; Mueller Hinton Broth),Ecoli/Tsoy(MIC) ([1]; Trypticase Soy Broth),"MIC [2, 5] [µg/mL]","MIC [2, 6] [µg/mL]",IC50 [3] [µg/mL],FAS(IC50) [4],"MIC [1, 7] [µg/mL]",IC50 [4] [µM],"MIC [1, 8] [µg/mL]",IC50 ([4]; unit inferred) [µM],SA/MH(MIC) ([2]; Mueller Hinton Broth)
CCCCCCCC[C@@]1(C)SC(=O)C=C1OCCCCCl (racemic),Neg,Neg,115,134,35.3 ± 2.2,Neg,,,,,
C=CCN(C)C(=O)COC1=CC(=O)SC1(C)CCCCCCCC (stereo not shown),,,,,9.2 ± 2.2,Neg,,,,,
CCCCCCCCC1(C)SC(=O)C=C1OCC(=O)NNCc1ccc(Cl)cc1 (stereo not shown),,,,,6.7,Neg,,,,,
CCCCCCCCC1(C)SC(=O)C(C(C)O)=C1OC (stereo not shown),Neg,,53.3 ± 2.1,16.2 ± 3.8,21 ± 2.9,,249,9.32,,,
C=CCOC(=O)OC1=CC(=O)S[C@]1(C)CCCCCCCC (racemic),,,57,28,34.9 ± 10,,87,16.8,82,,
CCCCCCCCC1(C)SC(=O)C=C1OC(=O)OCC (stereo not shown),,,45,83,15.1 ± 2.6,,,,,9.54,
COC1=CC(=O)SC1(C)Cc1ccccc1 (stereo not shown),Neg,Neg,83,129,61.3 ± 3.9,Neg,,,,,
CCCCCCCCC1(C)SC(=O)C(C)=C1O (stereo not shown),Neg,,45 ± 2,23.5 ± 0.4,48 ± 1.4,,290,192,,,
CC/C=C/C=C/C1(C)SC(=O)C=C1O (stereo not shown),,Neg,202,85,> 80,,,238,225,,
CCCCCCCCC1(C)SC(=O)C=C1OC (stereo not shown),Neg,Neg,252,67,16.4 ± 2.3,Neg,,,,,
CCCCCCCC[C@@]1(C)SC(=O)C(C(=O)C(F)(F)F)=C1O (racemic),,,54,65,18.4 ± 2.7,,,,,121,
CCCCCCCC[C@@]1(C)SC(=O)C=C1OC(=O)CC (racemic),Neg,Neg,88,62,26.8 ± 0.6,Neg,,,,,
CCCCCCCC[C@@]1(C)SC(=O)C=C1OCC(=O)O,Neg,Neg,98,60,50.3 ± 2.8,Neg,,,,,
CC1(Cc2ccccc2)SC(=O)C=C1O (stereo not shown),Neg,,57,67,> 80,Neg,299,,,,
C=CCOC1=CC(=O)S[C@]1(C)CCCCCC (racemic),Neg,Neg,73,54,9 ± 1.1,Neg,,,,,
C=CCC1(C)C(=O)S[C@](C)(CCCCCCCC)C1=O (mixture of isomers),Neg,Neg,,97,50.4 ± 4.7,Neg,,,,,Neg
CCCCCCCCC1(C)SC(=O)C=C1OCC(=O)NNC(C)=O (stereo not shown),,,,,25.3,Neg,,,,,
CCCCCCC1(C)SC(=O)C=C1OC (stereo not shown),Neg,,45,48,9.4 ± 1.5,Neg,264,,,,
CCCCCCCC[C@@]1(C)SC(=O)C(C(C)=O)=C1O (racemic),Neg,,3.4,1.4,125 ± 0.7,Neg,177,,,,
CCCCCC[C@@]1(C)SC(=O)C=C1OCC(=O)OCC (racemic),Neg,,,129,39.6 ± 2.2,Neg,281,,,,Neg
CCCCCCCCC1(C)SC(=O)C=C1OCC(=O)NNC(=O)c1ccco1 (stereo not shown),,,,,26.4,Neg,,,,,
CCCCCCCCC1(C)SC(=O)C=C1OCc1ccccc1 (stereo not shown),,,,,29.2,Neg,,,,,
CCCCCC[C@@]1(C)SC(=O)C=C1OCC(=O)NCCCBr (racemic),Neg,,147,237,21.2 ± 1.1,Neg,293,,,,
C=CCC1=C(OC)C(C)(CCCCCCCC)SC1=O (stereo not shown),Neg,Neg,,98,55 ± 2,Neg,,,,,Neg
CCCCCCC1(C)SC(=O)C=C1O (stereo not shown),Neg,Neg,48,31,> 80,Neg,,,,,
CCCCCCCC[C@@]1(C)SC(=O)C=C1OC(=O)OC (racemic),,Neg,64,41,21.6 ± 0.2,,,5.99,296,,
C=CCNC(=O)COC1=CC(=O)S[C@]1(C)CCCCCCCCCC (racemic),,,28,31,12.1 ± 0.6,Neg,,,,,
